Consider 28 molecules from patent US11332459B2 (TEIJIN PHARMA LIMITED, priority 2017, dated 2022).

Structures can show the parent of a compound that is named as a salt.

The target in this experiment is T1, human TRPC6 (Homo sapiens, UniProt Q9Y210).
T1 construct: expressed in transfected cells
T1 sequence (Q9Y210 1-931): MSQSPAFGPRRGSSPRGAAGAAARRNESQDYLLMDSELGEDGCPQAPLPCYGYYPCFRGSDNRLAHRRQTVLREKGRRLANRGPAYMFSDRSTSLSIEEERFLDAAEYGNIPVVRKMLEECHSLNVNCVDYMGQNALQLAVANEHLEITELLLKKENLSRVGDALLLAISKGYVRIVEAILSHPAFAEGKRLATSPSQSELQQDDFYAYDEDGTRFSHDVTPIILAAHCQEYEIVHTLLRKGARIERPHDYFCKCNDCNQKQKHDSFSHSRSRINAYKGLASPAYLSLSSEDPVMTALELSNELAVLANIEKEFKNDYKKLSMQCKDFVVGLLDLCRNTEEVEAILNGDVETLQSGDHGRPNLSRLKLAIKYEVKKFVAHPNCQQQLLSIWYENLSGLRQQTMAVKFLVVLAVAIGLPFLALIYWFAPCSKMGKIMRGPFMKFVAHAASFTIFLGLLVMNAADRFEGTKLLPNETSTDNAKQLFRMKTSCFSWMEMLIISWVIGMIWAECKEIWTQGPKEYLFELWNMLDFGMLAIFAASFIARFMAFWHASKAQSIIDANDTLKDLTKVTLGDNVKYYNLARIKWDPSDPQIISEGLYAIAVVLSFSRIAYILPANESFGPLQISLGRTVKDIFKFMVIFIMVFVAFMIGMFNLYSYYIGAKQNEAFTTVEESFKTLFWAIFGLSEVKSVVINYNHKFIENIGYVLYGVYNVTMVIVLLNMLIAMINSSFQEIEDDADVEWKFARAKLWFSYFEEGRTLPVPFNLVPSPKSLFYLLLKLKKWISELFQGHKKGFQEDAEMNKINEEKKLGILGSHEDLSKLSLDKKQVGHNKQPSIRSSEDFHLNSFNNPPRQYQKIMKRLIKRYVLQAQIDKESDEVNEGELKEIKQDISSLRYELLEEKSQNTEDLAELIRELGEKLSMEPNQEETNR
Description: TRPC6 calcium flux assay (FLIPR, OAG-stimulated calcium influx). In kind it is cell-based. Particulars: HEK293 cells stably transfected with human TRPC6, read-out: hTRPC6 Potency. In short, it runs like this: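 IC50 derived by plotting background-corrected peak fluorescence (180 s window, normalized to OAG-triggered signal vs buffer) against dose. Stable human TRPC6 HEK293 line was dye-loaded, exposed to compound 25 min, then challenged with 50 uM final OAG in 2 mM Ca2+ HEPES buffer pH 7.2, 0.5% DMSO.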
For orientation: A change in cytosolic calcium serves as a functional read-out for many receptors and channels.
As for `N#Cc1ccc(Cn2c(N3CCC[C@H](N)C3)nc3cc(C#N)ccc32)nc1` [Example 52, (S)-2-(3-aminopiperidin-1-yl)-1-((5-cyanopyridin-2-yl)methyl)-1H-benzo[d]imidazole-5-carbonitrile], the IC50 was 24.2 nM. As to `COc1ccc2c(c1)nc(N1CC[C@@H](F)[C@H](N)C1)n2Cc1ccc(C#N)cn1` [Example 145, 6-((2-((3R,4R)-3-amino-4-fluoropiperidin-1-yl)-5-methoxy-1H-benzo[d]imidazol-1-yl)methyl)nicotinonitrile hydrochloride], the IC50 came out at 14 nM. Then `N[C@@H]1CN(c2nc3ccc(F)cc3n2CC(=O)N(CC(F)(F)F)[C@@H]2CCOC2)CC[C@H]1F` [Example 672], with 1660 nM. In the case of “4-((2-((3R,4R)-3-amino-4-hydroxypiperidin-1-yl)-1H-benzo[d]imidazol-1-yl)methyl)benzonitrile compound with 4-((2-((3S,4S)-3-amino-4-hydroxypiperidin-1-yl)-1H-benzo[d]imidazol-1-yl)methyl)benzonitrile (1:1) dihydrochloride [Example 155]” it was 16.2 nM; in that of `NC(=O)c1ccc(Cn2c(N3CC[C@@H](F)[C@H](N)C3)nc3ccccc32)nc1` [Example 436, 6-((2-((3R,4R)-3-amino-4-fluoropiperidin-1-yl)-1H-benzo[d]imidazol-1-yl)methyl)nicotinamide], 52.4 nM; in that of `N#Cc1ccccc1Cn1c(N2CC[C@@H](F)[C@H](N)C2)nc2cc(F)c(F)cc21` [Example 353, 2-((2-((3R,4R)-3-amino-4-fluoro-1-piperidinyl)-5,6-difluoro-1H-benzimidazol-1-yl)methyl)benzonitrile], 30.8 nM. For the molecule `N[C@@H]1CN(c2nc3ccc(F)cc3n2CC(=O)Nc2nccs2)CC[C@H]1F` [Example 660, 2-(2-((3R,4R)-3-amino-4-fluoropiperidin-1-yl)-6-fluoro-1H-benzo[d]imidazol-1-yl)-N-(thiazol-2-yl)acetamide], the IC50 came out at 5.04 nM. For `COc1cc(F)cc2nc(N3CC[C@@H](F)[C@H](N)C3)n(CC(=O)N3CCOCC3)c12` [Example 546, 2-(2-((3R,4R)-3-amino-4-fluoropiperidin-1-yl)-5-fluoro-7-methoxy-1H-benzo[d]imidazol-1-yl)-1-morpholinoethan-1-one], the IC50 was over 3750 nM.

In the case of `N[C@@H]1CCCN(c2nc3ccccc3n2Cc2ccccc2Cl)C1` [Example 374, (R)-1-(1-(2-chlorobenzyl)-1H-benzo[d]imidazol-2-yl)piperidin-3-amine], the IC50 turned out to be 3410 nM.

Take `N[C@@H]1CN(c2nc3ccc(F)cc3n2CC(=O)N[C@@H]2CCOC2)CC[C@H]1F` [Example 676, 2-(2-((3R,4R)-3-amino-4-fluoropiperidin-1-yl)-6-fluoro-1H-benzo[d]imidazol-1-yl)-N-((R)-tetrahydrofuran-3-yl)acetamide]: the IC50 is over 3750 nM. Then `N[C@@H]1CN(c2nc3cc(Cl)ccc3n2CC(=O)N2CCOCC2)CC[C@H]1F` [Example 497, -(2-((3R,4R)-3-amino-4-fluoropiperidin-1-yl)-5-chloro-1H-benzo[d]imidazol-1-yl)-1-morpholinoethanone], with 94 nM. In the case of `CN(CC(F)(F)F)C(=O)Cn1c(N2CC[C@H](N)C2)nc2ccc(F)cc21` [Example 489, (S)-2-(2-(3-aminopyrrolidin-1-yl)-6-fluoro-1H-benzo[d]imidazol-1-yl)-N-methyl-N-(2,2,2-trifluoroethyl)acetamide] it was over 3750 nM; in that of `N#Cc1ccc(Cn2c(N3CC[C@H](F)[C@H](N)C3)nc3ccc(C(F)(F)F)cc32)nc1` [Example 106, 6-((2-((3R,4S)-3-amino-4-fluoro-1-piperidinyl)-6-(trifluoromethyl)-1H-benzimidazol-1-yl)methyl)-3-pyridinecarbonitrile], 0.45 nM. Take `N#Cc1cc(F)cc2c1nc(N1CC[C@@H](F)[C@H](N)C1)n2Cc1ncc(F)cn1` [Example 37, 2-((3R,4R)-3-amino-4-fluoropiperidin-1-yl)-6-fluoro-1-((5-fluoropyrimidin-2-yl)methyl)-1H-benzo[d]imidazole-4-carbonitrile]: the IC50 came out at 6.92 nM. Then `N#Cc1ccc(Cn2c(N3CCC[C@H](N)C3)nc3ccccc32)cc1` [Example 167, (S)-4-((2-(3-aminopiperidin-1-yl)-1H-benzo[d]imidazol-1-yl)methyl)benzonitrile], with 1.97 nM; and `N#Cc1ccc(Cn2c(N3CCC(F)(F)[C@H](N)C3)nc3c(Cl)cccc32)cc1` [Example 407, (R)-4-((2-(3-amino-4,4-difluoropiperidin-1-yl)-4-chloro-1H-benzo[d]imidazol-1-yl)methyl)benzonitrile], with 5.85 nM.

In the case of `N#Cc1ccc(Cn2c(N3CCC[C@@]4(CCCCN4)C3)nc3ccccc32)nc1` [Example 130, 6-((2-((6S)-1,8-diazaspiro[5.5]undecan-8-yl)-1H-benzimidazol-1-yl)methyl)-3-pyridinecarbonitrile], the IC50 worked out at 269 nM. In the case of `N#Cc1ccc(Cn2c(N3CCC[C@H](N)C3)nc3c(Cl)cccc32)nc1` [Example 3, (S)-6-((2-(3-aminopiperidin-1-yl)-4-chloro-1H-benzo[d]imidazol-1-yl)methyl)nicotinonitrile] it was 1.99 nM.

For `C[C@@H](c1ccc(Cl)cn1)n1c(N2CC[C@@H](F)[C@H](N)C2)nc2cc(Cl)ccc21` [Example 220, (3R,4R)-1-(5-chloro-1-((S)-1-(5-chloropyridin-2-yl)ethyl)-1H-benzo[d]imidazol-2-yl)-4-fluoropiperidin-3-amine hydrochloride], the IC50 is 0.986 nM.

With `CN(CC(F)(F)F)C(=O)Cn1c(N2CC[C@@H](F)[C@H](N)C2)nc2ccc(Cl)cc21` [Example 559, 2-(2-((3R,4R)-3-amino-4-fluoropiperidin-1-yl)-6-chloro-1H-benzo[d]imidazol-1-yl)-N-methyl-N-(2,2,2-trifluoroethyl)acetamide], the IC50 came to 16.6 nM. Take `COc1cc(F)cc2nc(N3CC[C@@H](F)[C@H](N)C3)n(CC(=O)N(C)CC(F)(F)F)c12` [Example 544, 2-(2-((3R,4R)-3-amino-4-fluoropiperidin-1-yl)-5-fluoro-7-methoxy-1H-benzo[d]imidazol-1-yl)-N-methyl-N-(2,2,2-trifluoroethyl)acetamide]: the IC50 was over 3750 nM. `N#Cc1ccc(Cn2c(N3CCC[C@H](N)C3)nc3cc(Cl)ccc32)nc1` [Example 2, (S)-6-((2-(3-aminopiperidin-1-yl)-5-chloro-1H-benzo[d]imidazol-1-yl)methyl)nicotinonitrile]: the IC50 was 3.2 nM. In the case of `N[C@@H]1CN(c2nc3cc(F)c(F)cc3n2CC(=O)N(Cc2cccs2)C2CCS(=O)(=O)C2)CC[C@H]1F` (mixture of isomers) [Example 522, 2-(2-((3R,4R)-3-amino-4-fluoropiperidin-1-yl)-5,6-difluoro-1H-benzo[d]imidazol-1-yl)-N-(1,1-dioxidotetrahydrothiophen-3-yl)-N-(thiophen-2-ylmethyl)acetamide] it was 762 nM. For the molecule `N#Cc1ccc(Cn2c(N3CC[C@@H](F)[C@H](N)C3)nc3cc(F)c(F)cc32)nc1` [Example 72, 6-((2-((3R,4R)-3-amino-4-fluoropiperidin-1-yl)-5,6-difluoro-1H-benzo[d]imidazol-1-yl)methyl)nicotinonitrile], the IC50 was 0.448 nM. Take `N[C@@H]1CN(c2nc3ccc(Br)cc3n2CC(=O)N2CCC2)CC[C@H]1F` [Example 455, 2-(2-((3R,4R)-3-amino-4-fluoropiperidin-1-yl)-6-bromo-1H-benzo[d]imidazol-1-yl)-1-(azetidin-1-yl)ethan-1-one]: the IC50 worked out at 6.56 nM. Then `COc1cc(F)cc2c1nc(N1CC[C@@H](F)[C@H](N)C1)n2Cc1ccc(C#N)cn1` [Example 452, 6-((2-((3R,4R)-3-amino-4-fluoropiperidin-1-yl)-6-fluoro-4-methoxy-1H-benzo[d]imidazol-1-yl)methyl)nicotinonitrile], with 1.17 nM. In the case of `CC1(C)COCCN1C(=O)Cn1c(N2CC[C@@H](F)[C@H](N)C2)nc2ccc(F)cc21` [Example 687, 2-(2-((3R,4R)-3-amino-4-fluoropiperidin-1-yl)-6-fluoro-1H-benzo[d]imidazol-1-yl)-1-(3,3-dimethylmorpholino)ethan-1-one] it was 2080 nM; in that of `N#Cc1ccc(Cn2c(N3CC[C@@H](F)[C@H](N)C3)nc3c(Cl)cccc32)cc1` [Example 408, 4-((2-((3R,4R)-3-amino-4-fluoropiperidin-1-yl)-4-chloro-1H-benzo[d]imidazol-1-yl)methyl)benzonitrile], 0.924 nM.
